# From patent US9221796B2, “Selective NR2B antagonists” (BRISTOL-MYERS SQUIBB COMPANY, priority 2014, dated 2015)
# Target: NR2B-subtype NMDA receptors (Rattus norvegicus (Rat), UniProt P35439+Q00960)
# Experiment: Radioligand binding assay (3H Ro 25-6981 competition, forebrain membranes)
# Conditions: 3H Ro 25-6981 (4 nM), read-out: NR2B Binding Ki
# Outline: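 Rat forebrain membranes competed against [3H]Ro 25-6981 for 1 hr at room temperature, then filtered onto PEI-treated GF/B plates and counted by scintillation. CPM converted to % inhibition, concentration-response curves fitted, Ki derived from at least two experiments.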
# NR2B-subtype NMDA receptors, sequence (Q00960 27-1482, other chains not shown): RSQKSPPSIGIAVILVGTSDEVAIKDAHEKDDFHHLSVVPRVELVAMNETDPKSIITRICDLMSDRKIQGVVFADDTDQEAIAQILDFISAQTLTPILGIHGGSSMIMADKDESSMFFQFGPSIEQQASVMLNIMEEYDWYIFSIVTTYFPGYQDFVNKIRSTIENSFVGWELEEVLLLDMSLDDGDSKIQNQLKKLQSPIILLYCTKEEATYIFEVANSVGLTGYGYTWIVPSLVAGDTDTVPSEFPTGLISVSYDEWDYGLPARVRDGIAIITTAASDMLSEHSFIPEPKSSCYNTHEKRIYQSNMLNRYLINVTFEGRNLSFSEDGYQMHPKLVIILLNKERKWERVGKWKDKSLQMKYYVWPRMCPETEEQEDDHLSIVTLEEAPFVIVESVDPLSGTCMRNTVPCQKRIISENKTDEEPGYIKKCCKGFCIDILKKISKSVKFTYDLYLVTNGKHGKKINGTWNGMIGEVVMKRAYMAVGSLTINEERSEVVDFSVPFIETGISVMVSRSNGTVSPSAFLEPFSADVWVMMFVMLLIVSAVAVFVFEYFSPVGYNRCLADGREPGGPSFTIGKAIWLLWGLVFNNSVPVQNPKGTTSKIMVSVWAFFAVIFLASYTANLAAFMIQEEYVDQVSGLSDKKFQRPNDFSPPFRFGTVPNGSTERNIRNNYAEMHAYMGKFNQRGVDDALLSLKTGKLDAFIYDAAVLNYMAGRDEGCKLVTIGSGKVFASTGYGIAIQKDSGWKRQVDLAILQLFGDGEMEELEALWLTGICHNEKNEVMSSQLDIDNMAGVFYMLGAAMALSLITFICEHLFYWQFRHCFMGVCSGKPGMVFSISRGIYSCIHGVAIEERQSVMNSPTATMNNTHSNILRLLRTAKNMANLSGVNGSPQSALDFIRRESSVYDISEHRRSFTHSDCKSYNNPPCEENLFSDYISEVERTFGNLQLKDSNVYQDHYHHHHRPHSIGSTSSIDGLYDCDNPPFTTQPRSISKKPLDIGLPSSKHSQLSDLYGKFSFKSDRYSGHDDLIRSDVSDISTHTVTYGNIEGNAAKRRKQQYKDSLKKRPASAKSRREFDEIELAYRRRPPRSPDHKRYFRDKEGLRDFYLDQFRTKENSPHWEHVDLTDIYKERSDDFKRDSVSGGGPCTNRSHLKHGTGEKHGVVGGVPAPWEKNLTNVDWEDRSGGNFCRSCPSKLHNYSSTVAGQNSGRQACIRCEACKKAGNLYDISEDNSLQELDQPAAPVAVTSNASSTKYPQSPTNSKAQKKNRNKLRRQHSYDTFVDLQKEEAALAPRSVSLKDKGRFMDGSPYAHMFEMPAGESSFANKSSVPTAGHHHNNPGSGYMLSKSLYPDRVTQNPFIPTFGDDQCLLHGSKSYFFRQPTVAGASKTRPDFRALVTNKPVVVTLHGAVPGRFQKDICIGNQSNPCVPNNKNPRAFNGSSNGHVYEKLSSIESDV
row,Ki [nM],Structure (SMILES)
1,100,"C[C@@H](c1ccccc1)N1CCC(N2CCC(c3ccc(O)cc3)CC2)C1=O (stereo partly drawn) [Example 32, 3-(4-(4-Hydroxyphenyl)piperidin-1-yl)-1-((S)-1-phenylethyl)pyrrolidin-2-one]"
2,30,"O=C1[C@H](N2CCC(c3ccc(O)cc3)C(F)(F)C2)CCN1Cc1ccccc1 (stereo partly drawn) [Example 102, P-2, (3R)-1-Benzyl-3-(3,3-difluoro-4-(4-hydroxyphenyl)piperidin-1-yl)pyrrolidin-2-one]"
3,560,"O=C1C(N2CC(c3ccc(O)cc3)C2)CCN1Cc1ccccc1 (stereo not drawn) [Example 16, 1-Benzyl-3-(3-(4-hydroxyphenyl)azetidin-1-yl)pyrrolidin-2-one]"
4,5.3,"O=C1[C@H](N2CCC(c3ccc(O)cc3)CC2)CCN1Cc1ccc(O)cc1 [Example 25b, (R)-1-(4-Hydroxybenzyl)-3-(4-(4-hydroxyphenyl)piperidin-1-yl)pyrrolidin-2-one]"
5,1320,"Cc1ccc(CN2CCC(N3CCCC(c4ccc(O)cc4)C3)C2=O)cc1 (stereo not drawn) [Example 3, 1-(4-Methylbenzyl)-3-(3-(4-hydroxyphenyl)piperidin-1-yl)pyrrolidin-2-one]"

# Second part, the compound before the results:
row,Structure (SMILES),Ki [nM]
1,"O=C1[C@H](N2CC[C@H](c3ccc(O)cc3)[C@@H](F)C2)CCN1Cc1ccc(C(F)(F)F)cc1 [Example 88, (R)-3-((3R,4R)-3-Fluoro-4-(4-hydroxyphenyl)piperidin-1-yl)-1-(4-(trifluoromethyl)benzyl)-pyrrolidin-2-one]",5.3
2,"O=C1[C@H](N2CC[C@H](c3ccc(O)cc3)[C@@H](F)C2)CCN1Cc1ccc(Cl)cc1 [Example 81, (R)-1-(4-Chlorobenzyl)-3-((3R,4R)-3-fluoro-4-(4-hydroxyphenyl)piperidin-1-yl)pyrrolidin-2-one]",3.8
3,"O=C1C(N2CCC(c3ccc(O)cc3)CC2)CCN1Cc1ccc(F)c(F)c1 (racemic) [Example 5, 1-(3,4-Difluorobenzyl)-3-(4-(4-hydroxyphenyl)piperidin-1-yl)pyrrolidin-2-one]",4.4
4,"O=C1[C@@H](N2CCC(c3ccc(O)cc3)C(F)(F)C2)CCN1Cc1ccc(Cl)c(F)c1 (single isomer, unassigned) [Example 107, P-1]",1200
5,"O=C1C(N2CCC(c3ccc(O)cc3)C(F)(F)C2)CCN1c1ccc(OC(F)F)c(Cl)c1 (stereo not drawn) [Example 90, 1-(3-Chloro-4-(difluoromethoxy)phenyl)-3-(3,3-difluoro-4-(4-hydroxyphenyl)piperidin-1-yl)pyrrolidin-2-one]",77
6,"O=C1C(N2CCC(c3ccc(O)cc3)CC2)CCN1C1CCc2ccccc21 (stereo not drawn) [Example 34, 1-(2,3-Dihydro-1H-inden-1-yl)-3-(4-(4-hydroxyphenyl)piperidin-1-yl)pyrrolidin-2-one]",670
7,"Cc1ccc(N2CC[C@@H](N3CC[C@H](c4ccc(O)cc4)[C@@H](F)C3)C2=O)cc1F [Example 49, P-2, (R)-3-((3R,4R)-3-fluoro-4-(4-hydroxyphenyl)piperidin-1-yl)-1-(3-fluoro-4-methylphenyl)pyrrolidin-2-one]",73
8,"Cc1ccc(CN2CC[C@H](N3CC[C@H](c4ccc(O)c(F)c4)[C@@H](F)C3)C2=O)cc1F [Example 45, P-3, (S)-3-((3R,4R)-3-Fluoro-4-(3-fluoro-4-hydroxyphenyl)piperidin-1-yl)-1-(3-fluoro-4-methylbenzyl)pyrrolidin-2-one]",380
9,"O=C1C(N2CCC(c3ccc(O)cc3)CC2)CCN1Cc1ccc(Cl)c(F)c1 (stereo not drawn) [Example 15, 1-(4-Chloro-3-fluorobenzyl)-3-(4-(4-hydroxyphenyl)piperidin-1-yl)pyrrolidin-2-one]",12
10,"O=C1C(N2CC[C@@H](c3ccc(O)cc3)[C@H](F)C2)CCN1Cc1ccc(OC(F)F)cc1 (stereo partly drawn) [Example 61, 1-(4-(Difluoromethoxy)benzyl)-3-((3S,4S)-3-fluoro-4-(4-hydroxyphenyl)piperidin-1-yl)pyrrolidin-2-one]",46
